Results: PMC7483467, “A small molecular compound CC1007 induces cross-lineage differentiation by inhibiting HDAC7 expression and HDAC7/MEF2C interaction in BCR-ABL1^− pre-B-ALL” (Cell Death & Disease, 2020)

Target: T1, MEF2C (Homo sapiens, UniProt Q06413)
T1 construct: endogenous intracellular protein in Nalm-6 and primary pre-B-ALL cells; untagged; detected by western blot
Test: cellular thermal shift assay (CETSA and ITDRF-CETSA), western blot read-out
Assay type: cell-based
Conditions: Nalm-6 and primary BCR-ABL1- pre-B-ALL cells; dose-response at 52 °C; endogenous MEF2C

T1 sequence (Q06413 whole entry): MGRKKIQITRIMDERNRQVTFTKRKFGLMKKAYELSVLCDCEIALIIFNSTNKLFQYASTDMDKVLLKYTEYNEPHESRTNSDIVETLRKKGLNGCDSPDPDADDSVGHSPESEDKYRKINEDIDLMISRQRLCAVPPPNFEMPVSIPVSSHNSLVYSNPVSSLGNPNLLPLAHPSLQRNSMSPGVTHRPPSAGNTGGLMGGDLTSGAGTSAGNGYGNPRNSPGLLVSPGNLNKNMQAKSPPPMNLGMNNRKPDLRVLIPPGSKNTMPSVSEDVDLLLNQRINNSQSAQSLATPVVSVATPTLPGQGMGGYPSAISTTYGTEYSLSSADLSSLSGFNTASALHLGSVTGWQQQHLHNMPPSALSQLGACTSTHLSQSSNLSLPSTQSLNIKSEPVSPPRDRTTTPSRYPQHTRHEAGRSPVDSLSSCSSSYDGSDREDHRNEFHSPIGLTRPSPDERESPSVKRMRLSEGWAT

Structure (SMILES): Nc1ccccc1NC(=O)CCCCCC(=O)Nc1cccc(Br)c1 [CC1007]
- thermal stabilisation (CETSA): These data indicate that CC1007 directly interacts with intracellular MEF2C.
